Experimental findings from patent US20210128492A1, “COMPOSITION FOR PREVENTING AND/OR IMPROVING BRAIN DYSFUNCTION COMPRISING A LUTEIN OR SALT THEREOF AND A PLANT PRODUCT OF THE GENUS TRAPA” (Santen Pharmaceutical Co., Ltd., priority 2017, published 2021) are described below.

SMILES strings stand for the structures.

Assay [1] has as its system Slc:ddY (SPF) mice injected with β-amyloid solution. As to the kind of experiment: Y-maze test (spontaneous alternation test) in mice injected with β-amyloid solution. The class given is in vivo, mouse. Here is the method: Slc:ddY (SPF:Specific-Pathogen-Free) mice (Supply Resource: Japan SLC, Inc.) received the administration a sample (Vehicle control, Trapa japonica extract, Lutein, or Trapa japonica extract+Lutein) and then the injection of β-amyloid solution. For the mice, Y-maze test was performed to evaluate the improvement effects of Trapa japonica extract, Lutein, and a combination thereof on learning disorder. The test was performed twice. The Y-maze test was performed according to Takayoshi MAMIYA et al., “Effects of Pre-Germinated Brown Rice on β-Amyloid Protein-Induced Learning and Memory Deficits in Mice”, Biol. Pharm. Bull., July 2004, 27(7), 1041-1045 to evaluate the effects.
Male, 5-week-old, Slc:ddY (SPF) mouse(Body weight: 23˜28 g: n=32)
According to the following procedure, model mice were made using the above mice: Each mouse was anesthetized with the intraperitoneal administration (dosing volume: 10 mL/kg) of pentobarbital sodium (TOKYO CHEMICAL INDUSTRY CO., LTD.) at 40 mg/kg. After anesthesia, levobupivacaine hydrochloride (POPSCAINE® 0.25% injection, Maruishi Pharmaceutical Co., Ltd.) (0.1 mL) was administered subcutaneously into the scalp of the mouse. The hair on the top of the mouse was trimmed, and the head part was fixed to a brain stereotactic device. The scalp of the mouse was sterilized with iodine tincture, and then the head part was incised to expose the skull and the connective tissue on the skull was removed with a cotton swab. The treated skull was dried with a blower to find the position of bregma more easily. A hole for inserting a stainless steel pipe was drilled in the skull at 1 mm to the right and 0.2 mm behind bregma with a dental drill. The stainless steel pipe connected to a silicon tube with an outside diameter of 0.5 mm and a micro syringe was perpendicularly inserted to a depth of 2.5 mm from the bone surface. 3 μL of a β-amyloid solution ([…]) was injected (in the sham operation group, 3 μL of water for injection was injected) into the cerebral ventricle with a microsyringe pump for 3 minutes. After the injection, the inserted stainless steel pipe was allowed to stand for 3 minutes, and then the pipe was slowly removed. After removing the stainless steel pipe, the cranial was closed with a non-absorbable myelostatic agent (NESTOP®, Alfresa Pharma Co., Ltd.) and the scalp was sutured. The mouse were removed from the brain stereotactic device and returned to the breeding cage.
The β-amyloid solution was prepared by dissolving β-amyloid (Amyloid-β Protein(25-35); Polypeptide Laboratories) to 2 mM with water for injection and incubating the solution in the constant temperature storage at 37° C. for 4 days. Water for injection was used as the vehicle for sham operation. […]

Assay [2] deals with pyramidal cell layer of the hippocampus CA1 region. As to the kind of experiment: Histopathological assessment of KB stained brain specimens from the mice of Test Example 1. It is filed as in vivo, mouse. Here is the method:
The brain was isolated from the mice in each group of Test Example 1 to prepare histopathological specimens, and the histopathological assessment of the prepared histopathological specimens was performed. Such test was performed twice. Each mouse in each group of Test Example 1 was anesthetized with an isoflurane solution and the chest of the mouse was opened to expose the heart. The exposed heart was cut into the auricle thereof. A polypropylene disposable syringe with an injection needle was used, the injection needle thereof was inserted from left ventricle and about 30 mL of ice-cooled saline was injected into the heart, and then the heart was perfused with about 30 mL of 10 vol % formalin neutral buffer solution. […] The isolated brain was embedded in paraffin according to any conventional method, one histopathological section was discontinuously prepared at around bregma-1.70 mm and around bregma-2.80 mm, respectively, and then Klüver-Barrera stained (KB stained) tissue specimens were prepared from each section. The cut brain was stored in 10 vol % formalin neutral buffer solution. • 1) For each specimen, the images of pyramidal cell layers of the hippocampus CA1 region closest to bregma-1.70 mm and bregma-2.80 mm from the optical microscope image (George Paxinos and Keith B. J. Franklin. (2013). The Mouse Brain in stereotaxic coordinates.

[3] abbreviates: 8 minutes, about 1 hour after administration on the 14th day, gavage once per day for 14 days (Trapa japonica extract 2 mg/kg, Lutein 0.4 mg/kg, combination 2 + 0.4 mg/kg), β-amyloid on day 8, average of n=10.
The mark [4] stands for this setting: β-amyloid model mice, 14 days gavage.

On to `CC1=C[C@H](O)CC(C)(C)[C@H]1/C=C/C(C)=C/C=C/C(C)=C/C=C/C=C(C)/C=C/C=C(C)/C=C/C1=C(C)C[C@@H](O)CC1(C)C` [Lutein, (3R,3′R,6′R)-β,ε-carotene-3,3′-diol], for which, in assay [1] (setting [3]), the Spontaneous alternation rate is 59.3%, the “The number of spontaneous alternation” value is recorded as 21.2 Count and the “The total number of entries” value is on record as 37.0 Count. For the same compound, in assay [1] (setting [4]), the “Spontaneous alternation rate as compared to the vehicle control group (in words)” value was “not improved”. The “Area of pyramidal cell layer” value in assay [2] (hippocampus CA1 region, KB stained specimens, mice of Test Example 1 (gavage 14 days; Trapa japonica extract 2 mg/kg, Lutein 0.4 mg/kg, combination 2 + 0.4 mg/kg), average of n=2) stood at 224874 μm^2. Moreover, the “Area of pyramidal cell layer of the hippocampus CA1 region as compared to the vehicle control group (in words)” value in assay [2] (setting [4]) was “increased”.
